Reference: patent publication US20230293491A1, “COMPOSITIONS AND METHODS FOR DIAGNOSIS AND TREATMENT OF CONDITIONS RELATED TO THE QUALITY OF AGING AND LONGEVITY” (EPITRACKER, INC., priority 2020, published 2023)

Target: T1, α-2 adrenoreceptor (Homo sapiens, UniProt P08913)
T1 construct: purchased Eurofins/DiscoverX SafetyScan47 panel
T1 sequence (P08913 1-465): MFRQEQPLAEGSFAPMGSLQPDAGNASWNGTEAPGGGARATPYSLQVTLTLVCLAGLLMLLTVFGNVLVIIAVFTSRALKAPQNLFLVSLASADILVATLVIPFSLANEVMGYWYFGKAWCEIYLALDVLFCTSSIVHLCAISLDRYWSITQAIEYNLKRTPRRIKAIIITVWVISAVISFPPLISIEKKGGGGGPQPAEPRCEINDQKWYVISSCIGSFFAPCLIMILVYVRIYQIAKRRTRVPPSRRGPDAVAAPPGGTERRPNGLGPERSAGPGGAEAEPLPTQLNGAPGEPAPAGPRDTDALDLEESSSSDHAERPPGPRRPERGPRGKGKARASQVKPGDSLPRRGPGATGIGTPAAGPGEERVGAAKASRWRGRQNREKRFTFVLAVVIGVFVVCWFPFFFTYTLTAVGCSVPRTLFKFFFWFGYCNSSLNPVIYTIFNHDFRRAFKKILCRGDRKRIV
Experiment: Eurofins/DiscoverX SafetyScan47 panel, α-2 adrenoreceptor agonist activity
Assay type: cell-based
Details: compared to UK 14304 control; between 3 nM and 6.7 µM
Text: Given the associations between increased histidine betaine and improved health in the dolphin model, it was hypothesized that histidine betaine has direct therapeutic activities. To test this hypothesis, the Eurofins/DiscoverX SafetyScan47 panel was used to test histidine betaine at 10 concentrations for agonist and antagonist activities across 76 assays and 47 genes and targets that are relevant to compound safety and mechanisms of action, including G-protein coupled receptors, kinases, transporters, ion channels, nuclear receptors, and non-kinase enzymes. Detailed methods used for these assays and assay readouts are available from Eurofins/DiscoverX.
Of 47 pharmacological targets tested for activity with histidine betaine, the following had partial activities, achieving at least 15% that of internal positive controls between 3 nM and 6.7 µM: α-2 adrenoreceptor agonist (maximum activity = 27% compared to UK 14304 control), and cyclooxygenase-1 (COX1) inhibitor (maximum activity = 23% compared to indomethacin control) (FIG. 4).

C[N+](C)(C)C(Cc1cnc[nH]1)C(=O)[O-] (stereo not shown) [histidine betaine]
maximum activity, α-2 adrenoreceptor agonist: 27%
